# Measured values as given in patent US20150031572A1, “MEANS AND METHODS FOR ASSESSING NEURONAL TOXICITY” (priority 2012, published 2015).
# Where a name gives a salt, the structure may show the parent alone. Marks after values point to notes of the source that are not given here.
# Assay: Plasma metabolite profiling (GC-MS, LC-MS, SPE-LC-MS) of rats dosed once daily over 28 days; treatment ratios versus untreated control
# Format: in vivo, rat
# Description: A group of each 5 male and female rats was dosed once daily with the indicated compounds (see Table 10, below for compounds, applied doses and administration details) over 28 days.
# Each dose group in the studies consisted of five rats per sex. Additional groups of each 5 male and female animals served as controls. Before starting the treatment period, animals, which were 62-64 days old when supplied, were acclimatized to the housing and environmental conditions for 7 days. All animals of the animal population were kept under the same constant temperature (20-24±3° C.) and the same constant humidity (30-70%). The animals of the animal population were fed ad libitum. The food to be used was essentially free of chemical or microbial contaminants. Drinking water was also offered ad libitum. Accordingly, the water was free of chemical and microbial contaminants as laid down in the European Drinking Water Directive 98/83/EG. The illumination period was 12 hours light followed by 12 hours darkness (12 hours light, from 6:00 to 18:00, and 12 hours darkness, from 18:00 to 6:00). […] The test substances (compounds) in the Tables 1 to 9 below were dosed and administered as described in the Table 10 above.
# In the morning of day 7, 14, and 28, blood was taken from the retro-orbital venous plexus from fasted anaesthetized animals. From each animal, 1 ml of blood was collected with EDTA as anticoagulant. The samples were centrifuged for generation of plasma. All plasma samples were covered with a N2 atmosphere and then stored at −80° C. until analysis.
# For mass spectrometry-based metabolite profiling analyses plasma samples were extracted and a polar and a non-polar (lipid) fraction was obtained. For GC-MS analysis, the non-polar fraction was treated with methanol under acidic conditions to yield the fatty acid methyl esters. Both fractions were further derivatised with O-methyl-hydroxyamine hydrochloride and pyridine to convert Oxogroups to O-methyloximes and subsequently with a silylating agent before analysis. In LC-MS analysis, both fractions were reconstituted in appropriate solvent mixtures. HPLC was performed by gradient elution on reversed phase separation columns. Mass spectrometric detection which allows target and high sensitivity MRM (Multiple Reaction Monitoring) profiling in parallel to a full screen analysis was applied as described in WO2003073464.
# Steroids and their metabolites were measured by online SPE-LC-MS (Solid phase extraction-LC-MS).
# Following comprehensive analytical validation steps, the data for each analyte were normalized against data from pool samples. These samples were run in parallel through the whole process to account for process variability. The significance of treatment group values specific for sex, treatment duration and metabolite was determined by comparing means of the treated groups to the means of the respective untreated control groups using WELCH-test and quantified with treatment ratios versus control and p-values.
# The identification of the most important biomarkers per toxicity pattern was done by a ranking of the analytes in the tables below. Therefore the metabolic changes in reference treatments of a given pattern (shown in the table) were compared with changes of the same metabolite in other unrelated treatments. […] The maximum absolute value of the respective TVALUE was taken to indicate the most important metabolite for the pattern.
# [1] = plasma, male rats, day 7, high dose, Table 2a
# [2] = plasma, male rats, day 7, high dose, Table 2b
# [3] = plasma, male rats, day 14, high dose, Table 2b
# [4] = plasma, male rats, day 28, high dose, Table 2a
# [5] = plasma, male rats, day 28, high dose, Table 2b
# [6] = plasma, female rats, day 28, low dose, Table 1c
# [7] = plasma, female rats, day 28, low dose, Table 1d
# [8] = plasma, male rats, day 28, low dose, Table 1b
# [9] = plasma, female rats, day 7, high dose, Table 5a
# [10] = plasma, female rats, day 7, high dose, Table 5b
# [11] = plasma, female rats, day 7, high dose, Table 6c
# [12] = plasma, female rats, day 7, high dose, Table 6d
# [13] = plasma, female rats, day 14, high dose, Table 5a
# [14] = plasma, female rats, day 14, high dose, Table 5b
# [15] = plasma, female rats, day 14, high dose, Table 6c
# [16] = plasma, female rats, day 14, high dose, Table 6d
# [17] = plasma, female rats, day 28, high dose, Table 5a
# [18] = plasma, female rats, day 28, high dose, Table 5b
# [19] = plasma, female rats, day 28, high dose, Table 6c
# [20] = plasma, female rats, day 28, high dose, Table 6d
smiles,measurement,setting,value
CC(=O)CCCCn1c(=O)c2c(ncn2C)n(C)c1=O [Pentoxifylline],"Choline plasmalogen No 03, ratio versus control",[1],1.01
same,"Creatine, ratio versus control",[1],0.95
same,"Isoleucine, ratio versus control",[1],0.93
same,"Valine, ratio versus control",[1],0.98*
same,"Adrenaline (Epinephrine), ratio versus control",[2],0.34*
same,"DAG (C18:1,C18:2), ratio versus control",[2],0.51*
same,"Glutamate, ratio versus control",[2],0.74*
same,"Glycerol, polar fraction, ratio versus control",[2],0.73*
same,"Metanephrine, ratio versus control",[2],0.48*
same,"Pyruvate, ratio versus control",[2],0.76*
same,"TAG No 07, ratio versus control",[2],0.46*
same,"Creatine, ratio versus control","plasma, male rats, day 14, high dose, Table 2a",1.36*
same,"Adrenaline (Epinephrine), ratio versus control",[3],1.34
same,"DAG (C18:1,C18:2), ratio versus control",[3],0.88*
same,"Glutamate, ratio versus control",[3],0.84
same,"Glycerol, polar fraction, ratio versus control",[3],0.74*
same,"Metanephrine, ratio versus control",[3],0.61*
same,"Pyruvate, ratio versus control",[3],0.62*
same,"TAG No 07, ratio versus control",[3],0.93
same,"Choline plasmalogen No 03, ratio versus control",[4],1.14*
same,"Creatine, ratio versus control",[4],1.18*
same,"Valine, ratio versus control",[4],1.1*
same,"Adrenaline (Epinephrine), ratio versus control",[5],0.33*
same,"DAG (C18:1,C18:2), ratio versus control",[5],0.72*
same,"Glutamate, ratio versus control",[5],0.79*
same,"Glycerol, polar fraction, ratio versus control",[5],0.8
same,"Metanephrine, ratio versus control",[5],0.63*
same,"Pyruvate, ratio versus control",[5],0.74*
same,"TAG No 07, ratio versus control",[5],0.74*
same,"Choline plasmalogen No 03, ratio versus control","rat, in vivo",1.29*
same,"Valine, ratio versus control","rat, in vivo",1.05*
CCC1(c2ccccc2)C(=O)NC(=O)NC1=O [Phenobarbital sodium],"3-Indoxylsulfate, ratio versus control","rat, in vivo",1.81 *
same,"Coenzyme Q9, ratio versus control","rat, in vivo",1.08 *
same,"Glutamate, ratio versus control","rat, in vivo",0.78 *
same,"Isoleucine, ratio versus control","rat, in vivo",1.12 *
same,"Ketoleucine, ratio versus control","rat, in vivo",0.88 *
same,"Malate, ratio versus control","rat, in vivo",0.69 *
same,"Pantothenic acid, ratio versus control","rat, in vivo",1.33 *
same,"Phosphate (inorganic and organic phosphates), ratio versus control","rat, in vivo",1.17 *
same,"Phosphatidylcholine (C16:0, C20:4), ratio versus control","rat, in vivo",0.99 *
same,"Phosphatidylcholine (C16:0, C22_6), ratio versus control","rat, in vivo",0.93 *
same,"Pyruvate, ratio versus control","rat, in vivo",0.73 *
same,"Valine, ratio versus control","rat, in vivo",1.15 *
same,"alpha-Tocopherol, ratio versus control","rat, in vivo",1.14 *
same,"myo-Inositol, ratio versus control","rat, in vivo",0.94 *
O=C1NC(=O)C(c2ccccc2)(c2ccccc2)N1 [Phenytoin],"Coenzyme Q9, ratio versus control",[6],1.22 *
same,"Valine, ratio versus control",[6],1.36 *
same,"Cysteine, ratio versus control",[7],0.86 *
same,"Glutamate, ratio versus control",[7],0.81 *
same,"Pyruvate, ratio versus control",[7],0.65 *
same,"myo-Inositol, ratio versus control",[7],0.69 *
same,"3-Indoxylsulfate, ratio versus control","plasma, male rats, day 28, low dose, Table 1a",1.78^
same,"Cysteine, ratio versus control",[8],0.73 *
same,"Ketoleucine, ratio versus control",[8],0.76 *
same,"Malate, ratio versus control",[8],0.84 *
same,"Phosphatidylcholine (C16:0, C20:4), ratio versus control",[8],0.99 *
same,"Phosphatidylcholine (C16:0, C22_6), ratio versus control",[8],0.95 *
same,"Isoleucine, ratio versus control","rat, in vivo",1.23 *
same,"Pantothenic acid, ratio versus control","rat, in vivo",1.25 *
same,"Phosphate (inorganic and organic phosphates), ratio versus control","rat, in vivo",1.25 *
same,"alpha-Tocopherol, ratio versus control","rat, in vivo",1.16 *
OCCOCCN1CCN(C2=Nc3ccccc3Sc3ccccc32)CC1 [Quetiapine fumarate],"3-Hydroxybutyrate, ratio versus control",[9],1.49*
same,"Histidine, ratio versus control",[9],1.31*
same,"Isoleucine, ratio versus control",[9],1.9*
same,"Leucine, ratio versus control",[9],1.98*
same,"Valine, ratio versus control",[9],1.49*
same,"4-Hydroxy-3-methoxyphenylglycol (HMPG), ratio versus control",[10],0.73*
same,"Glucose, ratio versus control",[10],0.94
same,"Lactate, ratio versus control",[10],0.45*
same,"Malate, ratio versus control",[10],0.67*
same,"Metanephrine, ratio versus control",[10],0.55*
same,"Pyruvate, ratio versus control",[10],0.37*
same,"Uric acid, ratio versus control",[10],0.92
same,"4-Hydroxysphinganine (t18:0, Phytosphingosine), total, ratio versus control",[11],1.03
same,"Docosahexaenoic acid (C22:cis[4,7,10,13,16,19]6), ratio versus control",[11],1.67*
same,"Docosapentaenoic acid (C22:cis[7,10,13,16,19]5), ratio versus control",[11],1.98*
same,"Phosphatidylcholine (C16:0,C16:0), ratio versus control",[11],1.11*
same,"Phosphatidylcholine No 02, ratio versus control",[11],1.05
same,"TAG (C16:0,C16:1), ratio versus control",[11],2.83*
same,"TAG (C16:0,C18:2), ratio versus control",[11],2.65*
same,"TAG (C18:2,C18:2), ratio versus control",[11],1.99*
same,"TAG (C18:2,C18:3), ratio versus control",[11],1.83*
same,"TAG (C18:3,C18:2,C18:1), ratio versus control",[11],2.04*
same,"TAG No 059, ratio versus control",[11],2.1*
same,"4-Hydroxyphenylpyruvate, ratio versus control",[12],0.61*
same,"Glycine, ratio versus control",[12],0.82*
same,"Lactate, ratio versus control",[12],0.45*
same,"Lysophosphatidylcholine (C16:0), ratio versus control",[12],0.97*
same,"Uric acid, ratio versus control",[12],0.92
same,"3-Hydroxybutyrate, ratio versus control",[13],1.55*
same,"Leucine, ratio versus control",[13],1.44*
same,"Valine, ratio versus control",[13],1.24*
same,"4-Hydroxy-3-methoxyphenylglycol (HMPG), ratio versus control",[14],0.67*
same,"Glucose, ratio versus control",[14],0.87*
same,"Lactate, ratio versus control",[14],0.61*
same,"Malate, ratio versus control",[14],0.66*
same,"Metanephrine, ratio versus control",[14],0.26*
same,"Pyruvate, ratio versus control",[14],0.33*
same,"Uric acid, ratio versus control",[14],0.64*
same,"Docosahexaenoic acid (C22:cis[4,7,10,13,16,19]6), ratio versus control",[15],1.58*
same,"Docosapentaenoic acid (C22:cis[7,10,13,16,19]5), ratio versus control",[15],2.01*
same,"Palmitic acid (C16:0), ratio versus control",[15],1.24*
same,"Phosphatidylcholine (C16:0,C16:0), ratio versus control",[15],1.2*
same,"TAG (C16:0,C16:1), ratio versus control",[15],2.16*
same,"TAG (C16:0,C18:1,C18:3), ratio versus control",[15],1.52*
same,"TAG (C16:0,C18:2), ratio versus control",[15],1.82*
same,"TAG (C18:2,C18:2), ratio versus control",[15],1.5*
same,"TAG (C18:3,C18:2,C18:1), ratio versus control",[15],1.63*
same,"TAG No 059, ratio versus control",[15],2.21*
same,"4-Hydroxyphenylpyruvate, ratio versus control",[16],0.62*
same,"Glycine, ratio versus control",[16],0.71*
same,"Lactate, ratio versus control",[16],0.61*
same,"Lysophosphatidylcholine (C16:0), ratio versus control",[16],0.98*
same,"Uric acid, ratio versus control",[16],0.64*
same,"3-Hydroxybutyrate, ratio versus control",[17],2.04*
same,"Galactose, lipid fraction, ratio versus control",[17],1.21
same,"Glutamine, ratio versus control",[17],1.31*
same,"Isoleucine, ratio versus control",[17],1.3*
same,"Leucine, ratio versus control",[17],1.27*
same,"4-Hydroxy-3-methoxyphenylglycol (HMPG), ratio versus control",[18],0.8
same,"Glucose, ratio versus control",[18],0.85*
same,"Lactate, ratio versus control",[18],0.46*
same,"Malate, ratio versus control",[18],0.55*
same,"Metanephrine, ratio versus control",[18],0.38*
same,"Pyruvate, ratio versus control",[18],0.36*
same,"Uric acid, ratio versus control",[18],0.68*
same,"4-Hydroxysphinganine (t18:0, Phytosphingosine), total, ratio versus control",[19],1.12
same,"Docosahexaenoic acid (C22:cis[4,7,10,13,16,19]6), ratio versus control",[19],1.24*
same,"Docosapentaenoic acid (C22:cis[7,10,13,16,19]5), ratio versus control",[19],1.76*
same,"Galactose, lipid fraction, ratio versus control",[19],1.21
same,"Phosphatidylcholine (C16:0,C16:0), ratio versus control",[19],1.07
same,"Phosphatidylcholine (C16:0,C20:5), ratio versus control",[19],1.1*
same,"Phosphatidylcholine (C16:1,C18:2), ratio versus control",[19],1.07
same,"Phosphatidylcholine No 02, ratio versus control",[19],1.31*
same,"TAG (C16:0,C16:1), ratio versus control",[19],2.14*
same,"TAG (C16:0,C18:1,C18:3), ratio versus control",[19],2.06*
same,"TAG (C16:0,C18:2), ratio versus control",[19],1.84*
same,"TAG (C18:2,C18:3), ratio versus control",[19],1.93*
same,"TAG (C18:3,C18:2,C18:1), ratio versus control",[19],1.27*
same,"TAG No 059, ratio versus control",[19],1.48*
same,"4-Hydroxyphenylpyruvate, ratio versus control",[20],0.36*
same,"Glycine, ratio versus control",[20],0.86*
same,"Lactate, ratio versus control",[20],0.46*
same,"Lysophosphatidylcholine (C16:0), ratio versus control",[20],0.97*
same,"Uric acid, ratio versus control",[20],0.68*
same,"4-Hydroxysphinganine (t18:0, Phytosphingosine), total, ratio versus control","rat, in vivo",1.46*
same,"Isoleucine, ratio versus control","rat, in vivo",1.46*
same,"Phosphatidylcholine No 02, ratio versus control","rat, in vivo",1.17*
same,"TAG (C16:0,C18:1,C18:3), ratio versus control","rat, in vivo",1.41*
same,"TAG (C18:2,C18:2), ratio versus control","rat, in vivo",1.41*
same,"TAG (C18:2,C18:3), ratio versus control","rat, in vivo",1.37*
same,"Valine, ratio versus control","rat, in vivo",1.12*
